US7960349B2 (Bristol-Myers Squibb Company, priority 2006, dated 2011)
Values belong to the molecule of their own block, whether it stands above or below them. *1 amine or outer side, *2 acyl side, *3 side chain or, on linkers, in order; H or OH if unused. Where a SMILES comes first, the peptide text is derived from it. Primed or numbered codes have the meaning given here. [ ]: non-standard residue; d: D form. The star is where a group is joined. ξ: configuration not given here. X1 = 4‑(2′-methylphenyl)‑3‑pyridylalanine, Cc1ccccc1-c1ccncc1C[C@H](N[*:1])C(=O)[*:2]; Ala(6-(2-MePh)pyridin-3-yl) = Cc1ccccc1-c1ccc(C[C@H](N)C(=O)O)cn1; Phe(4-(2-Et-4-HO-Ph)) = CCc1cc(O)ccc1-c1ccc(C[C@H](N)C(=O)O)cc1; Bip(2'-Et-4'-OMe) = CCc1cc(OC)ccc1-c1ccc(C[C@H](N)C(=O)O)cc1; X2 = Cc1ccccc1-c1ncc(C[C@H](N[*:1])C(=O)[*:2])cn1; αMePhe(2,6-F2) = C[C@](N)(Cc1c(F)cccc1F)C(=O)O; αMePhe(2-F) = C[C@](N)(Cc1ccccc1F)C(=O)O; ξαMePhe(2-F) = CC(N)(Cc1ccccc1F)C(=O)O; αMeP = C[C@@]1(C(=O)O)CCCN1; dNMeA = CN[C@H](C)C(=O)O; ξαMeP = CC1(C(=O)O)CCCN1; Aib = CC(C)(N)C(=O)O; Moc = COC(=O)*

Legend:
[1] = Dog pharmacokinetic study; type: in vivo; details: sc 67 μg/kg; vehicle propylene glycol/pH 7.4 phosphate buffer (1:1)
Description: The pharmacokinetic parameters of the Compounds of SEQ ID NO: 9, 118, 151 and 158 were determined in male beagle dogs (n=3-4, 14±1 kg). Following an overnight fast, each animal received the Compounds of SEQ ID NO: 9, 118, 151 and 158 either as an intravenous bolus via femoral vein (67 μg/kg) or by subcutaneous injection given at near the shoulder blades (67 μg/kg). Each animal received both intravenous and subcutaneous doses with a one-week washout between doses following a crossover design. The dosing vehicle for both routes of administration was propylene glycol:pH 7.4 phosphate buffer (50:50) or 0.2 M Tris (pH 8.0). Serial blood samples were collected in EDTA-containing microcentrifuge tubes at predose, 0.083, 0.25, 0.5, 0.75, 1, 2, 4, 6, 8, 24, and 30 hours post-dose after intravenous administration; at predose, 0.25, 0.5, 0.75, 1, 2, 4, 6, 8, 24, and 30 hours post-dose after subcutaneous administration. Approximately 0.3 mL of blood was collected at each time point. Blood samples were immediately centrifuged at 4° C. The obtained plasma was frozen with dry ice and stored at −20° C. Plasma drug levels were determined using the LC-MS/MS assay described below.
Plasma samples from the in vivo dog study were prepared for analysis by precipitating plasma proteins with two volumes of AcCN containing an internal standard. The samples were vortex mixed and the precipitated proteins were removed by centrifugation. The resulting supernatants were transferred to a 96-well plate and 10 μL were injected for TFC-LC/MS/MS analysis.
The TFC-HPLC system (Cohesive TX-1 Flux, Aria 2300 System) consisted of a loading pump, an eluting pump, and a CTC PAL autosampler (Cohesive Technologies, Franklin, Mass.). The columns used were Phenomenex Synergi Fusion-RP (C18, 2.0×50 mm, 4μ) (Phenomenex, Torrance, Calif.) as the analytical column and Turbo-Flow (TF) HTLC Cyclone column (0.5×50 mm) (Cohesive Technologies, Franklin, Mass.) as the extraction column for on-line sample processing. The mobile phase A consisted of 10 mM ammonium formate and 0.1% formic acid in water and mobile phase B consisted of 0.1% formic acid in AcCN. Turbo-Flow Chromatography was used to obtain a cleaner sample. A rapid gradient elution was used for analyte separation. The samples were injected onto the Turbo-Flow HTLC Cyclone column and analytes were separated from biological fluid components with using 100% H2O at 1.5 mL/min. The TF column was back flushed and analytes were back eluted from the TF to HPLC analytical column using a ramp to 60% B over 2 min and held there for 30 seconds at 0.3 mL/min to separate and to elute the analytes from the HPLC column into the mass spectrometer. Both columns were washed for an additional minute and then both columns were re-equilibrated at initial conditions.
The HPLC was interfaced to a Sciex API 4000 mass spectrometer (Applied Biosystems, Foster City, Calif.) and was equipped with a TurboIonspray ionization source. Ultra high purity nitrogen was used as the nebulizing and turbo-gas. The temperature of turbo-gas was set at 300° C. and the interface heater was set at 60° C. Selected Reaction Monitoring (SRM) was used for data acquisition. Multiple charged ion species, i.e. (M+2H)^2+ for Compound of SEQ ID NO: 158 were selected in Q1 and were collisionally dissociated with high purity nitrogen at a pressure of 3.5×10^−3 torr in Q2 to form specific product ions which were subsequently monitored in Q3. The ion transitions and voltages are summarized below (Table 4).
The standard curve concentrations, ranging from 1 to 1000 nM, were analyzed in duplicate. The curves were fitted with a linear regression weighted by reciprocal concentration […]. Quality control (QC) samples, prepared in blank matrix at the same concentrations as the standards were also analyzed in each analytical set. […]

[2] = test system: ob/ob mice; assay: Intraperitoneal glucose tolerance test (ipGTT) in ob/ob mice after sc injection; type: in vivo, mouse; details: 10 nmol/kg sc; relative to vehicle-treated group
Description: Peptides were dissolved in an appropriate vehicle at a concentration in nmol/ml equivalent to the dose that was to be administered in nmol/kg so that each mouse would receive the same volume/weight of dosing solution. Male C57BL/6-ob/ob mice (10 weeks old) were randomized into groups of 6 mice per group based on fed plasma glucose and body weight. After an overnight fast, mice were weighed and placed in the experimental lab. After 30 min in the environment, the mice were bled via tail tip at −30 min and immediately injected subcutaneously (sc) with vehicle or the peptide dissolved in vehicle (0.1 ml solution/100 g body weight). At time 0 the mice were bled and then injected intraperitoneally with 50% glucose (2 g/kg) to initiate the intraperitoneal glucose tolerance test (ipGTT). The mice were bled 30, 60, 120 and 180 min after the glucose injection. Blood samples were drawn into potassium EDTA, placed on ice during the study and subsequently centrifuged for 10 min at 3000 rpm at 4° C. Plasma samples were diluted 11-fold for glucose analysis in the Cobas System. Another 5 μl plasma sample was diluted 5-fold with 20 μl of Sample Diluent (Insulin ELISA assay kit, Crystal Chem. Inc.) and stored at −20° C. for subsequent analysis using the Ultra Sensitive Mouse Insulin ELISA kit (Crystal Chem Inc.).

[3] = target: T1, Human GLP-1 Receptor (Homo sapiens, UniProt P43220); assay: Cyclic AMP determination in CHO cells expressing human GLP-1 receptor; type: cell-based; details: human GLP-1 receptor
T1 construct: Full-length human glucagon-like peptide 1 receptor was stably expressed in CHO-K1 cells; expressed in transfected cells; host or cells: CHO-K1 (clone CHO-GLP1R-19)
Description: CHO-GLP-1R-19 cells (20,000 in 100 μl of media) were plated into each well of a 96-well tissue culture microtiter plate and incubated overnight in a 5% CO2 atmosphere at 37° C. On the day of the assay, cells were washed once with 100 μl of phosphate-buffered saline (PBS). A Biomek 2000 was used to serially dilute all peptides prior to beginning the assay. Serial dilutions were carried out in 100% DMSO.
50 μl of each cAMP standard was added by hand and 70 μl of mix reagent (Amersham cAMP SPA kit) was added using the multidrop. […] This standard curve was used to convert CPM to pmol of cAMP.
Cell plates and peptide plates were loaded onto the Platemate. The media was aspirated from the wells and discarded. 100 uL per well of the peptide/buffer mixture were then added from the peptide plates to initiate the assay. After 30 min. of incubation the peptide/buffer was removed and 50 uL of the lysis reagent 1 solution was added per well. The plate was kept for one hour at RT or overnight if refrigerated and sealed.
Dose dependence for Compounds was determined at half-log concentrations in duplicate. […] A standard curve was determined using known amounts of cyclic AMP. […] The data were analyzed by nonlinear regression curve fitting (4 parameter sigmoidal dose-response curve) to determine the EC50 of the compounds.

[4] = target: Full-length human glucagon-like peptide 1 receptor (human, UniProt P43220 24-463); assay: cell-based or functional assay

T1 sequence (P43220 24-463): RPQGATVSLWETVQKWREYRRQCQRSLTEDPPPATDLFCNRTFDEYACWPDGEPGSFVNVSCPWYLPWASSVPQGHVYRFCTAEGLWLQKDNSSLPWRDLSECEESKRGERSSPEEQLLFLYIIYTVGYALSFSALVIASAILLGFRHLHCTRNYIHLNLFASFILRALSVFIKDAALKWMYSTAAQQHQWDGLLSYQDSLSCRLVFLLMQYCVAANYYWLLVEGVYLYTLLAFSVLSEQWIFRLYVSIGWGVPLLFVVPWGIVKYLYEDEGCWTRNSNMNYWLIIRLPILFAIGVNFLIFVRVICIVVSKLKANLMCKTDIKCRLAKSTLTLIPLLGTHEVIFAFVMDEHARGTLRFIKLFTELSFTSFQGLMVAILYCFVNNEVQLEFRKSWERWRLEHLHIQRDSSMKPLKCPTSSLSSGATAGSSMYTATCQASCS

Molecule: CCc1cc(OC)ccc1-c1ccc(C[C@H](NC(=O)[C@H](CC(=O)O)NC(=O)[C@H](CO)NC(=O)[C@@H](NC(=O)[C@](C)(Cc2ccccc2F)NC(=O)[C@@H](NC(=O)CNC(=O)[C@H](CCC(=O)O)NC(=O)[C@@H](C)N(C)C(=O)[C@@H](N)Cc2c[nH]cn2)[C@@H](C)O)[C@@H](C)O)C(=O)N[C@@H](Cc2ccc(-c3ccccc3C)nc2)C(N)=O)cc1 [SEQ ID NO: 119] (H-H[dNMeA]EGT[αMePhe(2-F)]TSD[Bip(2'-Et-4'-OMe)][Ala(6-(2-MePh)pyridin-3-yl)]-NH2)
Exposure in dogs (sc@67 μg/kg) [1]: 1.257 µM·h

Molecule: CCc1cc(OC)ccc1-c1ccc(C[C@H](NC(=O)[C@H](CC(=O)O)NC(=O)[C@H](Cc2c[nH]cn2)NC(=O)[C@@H](NC(=O)[C@](C)(Cc2ccccc2F)NC(=O)[C@@H](NC(=O)CNC(=O)[C@H](CCC(=O)O)NC(=O)[C@]2(C)CCCN2C(=O)[C@@H](N)Cc2c[nH]cn2)[C@@H](C)O)[C@@H](C)O)C(=O)N[C@@H](Cc2ccc(-c3ccccc3C)nc2)C(N)=O)cc1 [SEQ ID NO: 120] (H-H[αMeP]EGT[αMePhe(2-F)]THD[Bip(2'-Et-4'-OMe)][Ala(6-(2-MePh)pyridin-3-yl)]-NH2)
Exposure in dogs (sc@67 μg/kg) [1]: 1.116 µM·h

Molecule: CCc1cc(OC)ccc1-c1ccc(C[C@H](NC(=O)[C@H](CC(=O)O)NC(=O)[C@H](CO)NC(=O)[C@@H](NC(=O)[C@](C)(Cc2ccccc2F)NC(=O)[C@@H](NC(=O)CNC(=O)[C@H](CCC(=O)O)NC(=O)C(C)(C)NC(=O)[C@@H](N)Cc2c[nH]cn2)[C@@H](C)O)[C@@H](C)O)C(=O)N[C@@H](Cc2cnc(-c3ccccc3C)nc2)C(N)=O)cc1 [SEQ ID NO: 130] (H-H[Aib]EGT[αMePhe(2-F)]TSD[Bip(2'-Et-4'-OMe)][X2]-NH2)
Exposure in dogs (sc@67 μg/kg) [1]: 0.541 µM·h

B1: Compound of SEQ ID NO: 157 (peptide)
peptide: Moc-H[αMeP]EGT[αMePhe(2-F)]THD[Phe(4-(2-Et-4-HO-Ph))][X1]-NH2
Mean EC50 (nM), stimulation of cAMP synthesis in CHO cells [4]: 0.026 nM
Mean Emax (%), stimulation of cAMP synthesis in CHO cells [4]: 99.4%

Further lines, with some results ahead:

Exposure in dogs (sc@67 μg/kg) [1]: 1.603 µM·h
Molecule: CCc1cc(OC)ccc1-c1ccc(C[C@H](NC(=O)[C@H](CC(=O)O)NC(=O)[C@H](CO)NC(=O)[C@@H](NC(=O)C(C)(Cc2ccccc2F)NC(=O)[C@@H](NC(=O)CNC(=O)[C@H](CCC(=O)O)NC(=O)C2(C)CCCN2C(=O)[C@H](Cc2c[nH]cn2)NC(=O)OC)[C@@H](C)O)[C@@H](C)O)C(=O)N[C@@H](Cc2ccc(-c3ccccc3C)nc2)C(N)=O)cc1 (stereo partly drawn) [SEQ ID NO: 139] (Moc-H[ξαMeP]EGT[ξαMePhe(2-F)]TSD[Bip(2'-Et-4'-OMe)][Ala(6-(2-MePh)pyridin-3-yl)]-NH2)
Potency in ob/ob mice: % AUC Reduction in Plasma Glucose in an IP Glucose Tolerance Test after SC Injection of Compound [2]: −63% (p < 0.01)

Exposure in dogs (sc@67 μg/kg) [1]: 0.283 µM·h
Molecule: CCc1cc(OC)ccc1-c1ccc(C[C@H](NC(=O)[C@H](CC(=O)O)NC(=O)[C@H](CO)NC(=O)[C@@H](NC(=O)[C@](C)(Cc2c(F)cccc2F)NC(=O)[C@@H](NC(=O)CNC(=O)[C@H](CCC(=O)O)NC(=O)[C@]2(C)CCCN2C(=O)[C@H](Cc2c[nH]cn2)NC(=O)OC)[C@@H](C)O)[C@@H](C)O)C(=O)N[C@@H](Cc2ccc(-c3ccccc3C)nc2)C(N)=O)cc1 [SEQ ID NO: 140] (Moc-H[αMeP]EGT[αMePhe(2,6-F2)]TSD[Bip(2'-Et-4'-OMe)][Ala(6-(2-MePh)pyridin-3-yl)]-NH2)

Exposure in dogs (sc@67 μg/kg) [1]: 0.94 µM·h
Molecule: CCc1cc(OC)ccc1-c1ccc(C[C@H](NC(=O)[C@H](CC(=O)O)NC(=O)[C@H](CO)NC(=O)[C@@H](NC(=O)[C@](C)(Cc2ccccc2F)NC(=O)[C@@H](NC(=O)CNC(=O)[C@H](CCC(=O)O)NC(=O)[C@@H](C)NC(=O)[C@@H](N)Cc2c[nH]cn2)[C@@H](C)O)[C@@H](C)O)C(=O)N[C@@H](Cc2ccc(-c3ccccc3C)nc2)C(N)=O)cc1 [SEQ ID NO: 149] (H-H[dA]EGT[αMePhe(2-F)]TSD[Bip(2'-Et-4'-OMe)][Ala(6-(2-MePh)pyridin-3-yl)]-NH2)

Exposure in dogs (sc@67 μg/kg) [1]: 0.979 µM·h
Molecule: CCc1cc(OC)ccc1-c1ccc(C[C@H](NC(=O)[C@H](CC(=O)O)NC(=O)[C@H](CO)NC(=O)[C@@H](NC(=O)[C@](C)(Cc2ccccc2F)NC(=O)[C@@H](NC(=O)CNC(=O)[C@H](Cc2c[nH]cn2)NC(=O)C(C)(C)NC(=O)[C@@H](N)Cc2c[nH]cn2)[C@@H](C)O)[C@@H](C)O)C(=O)N[C@@H](Cc2ccc(-c3ccccc3C)nc2)C(N)=O)cc1 [SEQ ID NO: 150] (H-H[Aib]HGT[αMePhe(2-F)]TSD[Bip(2'-Et-4'-OMe)][Ala(6-(2-MePh)pyridin-3-yl)]-NH2)

Emax ([3]; CHO, percent of maximal GLP-1 stimulated activity): 99.4%
Mean Hill [3]: 1.9
Molecule: CCc1cc(O)ccc1-c1ccc(C[C@H](NC(=O)[C@H](CC(=O)O)NC(=O)[C@H](Cc2c[nH]cn2)NC(=O)[C@@H](NC(=O)C(C)(Cc2ccccc2F)NC(=O)[C@@H](NC(=O)CNC(=O)[C@H](CCC(=O)O)NC(=O)C2(C)CCCN2C(=O)[C@H](Cc2c[nH]cn2)NC(=O)OC)[C@@H](C)O)[C@@H](C)O)C(=O)N[C@@H](Cc2ccc(-c3ccccc3C)nc2)C(N)=O)cc1 (stereo partly drawn) [SEQ ID NO: 157] (Moc-H[ξαMeP]EGT[ξαMePhe(2-F)]THD[Phe(4-(2-Et-4-HO-Ph))][Ala(6-(2-MePh)pyridin-3-yl)]-NH2)
